From publication PMC5827756, “Inhibition of Heat Shock proteins HSP90 and HSP70 induce oxidative stress, suppressing cotton fiber development” (Scientific Reports, 2018)

Biological target: T1, human HSP70 (Homo sapiens, UniProt P0DMV8)
T1 construct: gene HSPA1A
Experiment: citrate synthase thermoprotection (chaperone) assay, […] nm DTNB
Format: biochemical
Conditions: 0.5 µM porcine heart citrate synthase, 1.8 µM HSP, 43 °C, 50 mM HEPES pH 8.0; activity read at 25 °C; inhibitor concentration not stated

T1 sequence (P0DMV8 2-641): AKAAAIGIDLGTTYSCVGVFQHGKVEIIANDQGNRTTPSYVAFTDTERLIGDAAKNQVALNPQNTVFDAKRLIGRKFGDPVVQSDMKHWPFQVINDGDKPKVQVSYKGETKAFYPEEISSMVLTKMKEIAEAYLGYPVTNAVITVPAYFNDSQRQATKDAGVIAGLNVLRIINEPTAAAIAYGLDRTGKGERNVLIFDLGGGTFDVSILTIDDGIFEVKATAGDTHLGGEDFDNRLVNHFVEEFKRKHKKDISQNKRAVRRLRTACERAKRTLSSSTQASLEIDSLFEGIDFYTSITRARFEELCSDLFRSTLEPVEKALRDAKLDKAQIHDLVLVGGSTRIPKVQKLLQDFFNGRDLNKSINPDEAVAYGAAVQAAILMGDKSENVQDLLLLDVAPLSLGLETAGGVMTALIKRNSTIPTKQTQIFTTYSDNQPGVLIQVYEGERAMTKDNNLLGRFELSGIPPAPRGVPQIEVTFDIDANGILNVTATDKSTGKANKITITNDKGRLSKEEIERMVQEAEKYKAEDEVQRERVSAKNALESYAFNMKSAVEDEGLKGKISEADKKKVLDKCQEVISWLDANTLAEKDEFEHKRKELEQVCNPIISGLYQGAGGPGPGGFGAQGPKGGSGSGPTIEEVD

## NS(=O)(=O)C#Cc1ccccc1 [Pif, pifithrin]
  citrate synthase thermoprotection (chaperone) assay, 412 nm DTNB: Similarly, Pif also inhibits thermos-protection by HSP70
